From patent publication US8440199B2, “Methods for mobilizing mesenchymal stem cells in a patient” (Imperial Innovations Limited, priority 2007, dated 2013) come the findings set out here.

One assay relates to CD34^+ VEGFR2^+ EPCs. Description: PI staining, cell cycle status of CD34+ VEGFR2+ EPCs. The assay is classed as in vivo, mice. Conditions: treated 4 days, FIG. 25d. Here is the method: For flow cytometric analysis, cells were re-suspended in FACS buffer. To identify neutrophils in the bone marrow, surface expression of the granulocyte marker Ly-6G/Ly6C (Gr-1) was determined. Neutrophils were identified as Gr-1^high positive cells with a characteristic high side scatter profile. HPCs residing in the BM were selected as being negative for lineage (Lin^−) markers: CD3e, CD11b, CD45R, Ly-76, and Gr-1 and positive for Sca-1 (Lin^− Sca-1^+ cells) (Gerber et al., 2002; Uchida, et al., 1997). EPCs residing in the BM were selected as being positive for both CD34 and VEGFR2 (CD34^+ VEGFR2^+ cells) (Asahara et al., 1997; Yoon et al., 2005). […] Samples were then washed and then quantified on a FACSAria cell sorter (BD Biosciences, Oxford, United Kingdom) and analysed using FACSDiva software.
Lin^− Sca-1^+ cells and CD34^+ VEGFR2^+ cells were analysed to determine their cell cycling status using a propidium iodide (PI) stain. […] A dotplot of PI-Width against PI-Area was recorded. Aggregates of cells were detected as cells having a larger PI-W profile and were not included in the gate. […] To calculate the percentage of cells undergoing active cell cycling, a marker was set to exclude the G0/G1 peak and the percentage of cells in S/G2/M was calculated.

Assay [1] concerns EPCs. Description: In situ perfusion of mouse hind limb, CFU-EPC in perfusate. The assay is classed as in vivo, mice. To be noted: for EPC mobilization from the bone marrow: FIG. 21c.
For another assay, the system named is neutrophils. To be noted: VEGF pre-treatment 4 days, KC 30 μg/kg i.v., 60 minutes, FIG. 24c.
Assay [2] in a line: Total number of cells in the femurs. The assay is classed as in vivo. To be noted: treated over 4 days; not significantly different compared to control mice.
Description: 24 hours after the last injection, bone marrow was aspirated for the enumeration of a, CFU-HPC bone marrow frequency; b, CFU-EPC bone marrow frequency; and c, CFU-SPC bone marrow frequency.
24 hours after the last injection, mice were administered a CXCR4 antagonist (AMD3100, 5 mg/kg i.p), KC (30 μg/kg i.v.) or vehicle and blood was collected via cardiac puncture 60 minutes later for enumeration of circulating leukocyte, HPC, EPC, and stromal progenitor cell levels.
(§1) The perfusate was centrifuged and re-suspended in DMEM+20% FBS. In some experiments citrated blood was obtained via cardiac bleed and lysed for red blood cells. Bone marrow and perfusate cytospins, and blood smears were stained using DiffQuik for the enumeration of mononuclear cells, eosinophils, and neutrophils. Bone marrow, perfusate and lysed blood were then used for assays outlined below to enumerate HPCs (CFU-HPC), EPCs (CFU-EPC), SPCs (CFU-F).
Assay [3] relates to EPCs. Put plainly: Circulating CFU-EPC in blood. Format: in vivo, mice. Conditions: FIG. 20c.
A further assay relates to HPCs. Description: Circulating CFU-HPC in blood. To be noted: agent alone (AMD3100 5 mg/kg i.p., blood at 60 min; G-CSF or VEGF once daily for 4 days), FIG. 20b.
In another assay the test system is CXCR4. Description: Flow cytometry of CXCR4 expression on bone marrow HPCs and EPCs. Format: in vivo, mice. Conditions: treated 4 days. Here is the method: Bone marrow was aspirated on day 5 and harvested cells were used to determine a, SDF-1α levels in bone marrow supernatant as determined by ELISA; b, % of bone marrow Lin^− Sca-1^+ cells expressing CXCR4; and c, % of bone marrow CD34^+ VEGFR2^+ cells expressing CXCR4. Harvested cells were also utilized in the following chemotaxis assays: d, number of HPCs; and e, EPCs undergoing chemotaxis towards 30 nM SDF-1α. Cells taken from bone marrow of mice treated with G-CSF (closed bars) or vehicle (PBS, open bars). f, number of HPCs; and g, EPCs undergoing chemotaxis towards 30 nM SDF-1α.
For flow cytometric analysis, cells were re-suspended in FACS buffer. To identify neutrophils in the bone marrow, surface expression of the granulocyte marker Ly-6G/Ly6C (Gr-1) was determined. Neutrophils were identified as Gr-1^high positive cells with a characteristic high side scatter profile. HPCs residing in the BM were selected as being negative for lineage (Lin^−) markers: CD3e, CD11b, CD45R, Ly-76, and Gr-1 and positive for Sca-1 (Lin^− Sca-1^+ cells) (Gerber et al., 2002; Uchida, et al., 1997). EPCs residing in the BM were selected as being positive for both CD34 and VEGFR2 (CD34^+ VEGFR2^+ cells) (Asahara et al., 1997; Yoon et al., 2005). Furthermore, neutrophils were stained for the surface expression of CXCR2, whilst Lin^− Sca-1^+ cells and CD34^+ VEGFR2^+ cells were stained for the cell surface expression of CXCR4. Samples were then washed and then quantified on a FACSAria cell sorter (BD Biosciences, Oxford, United Kingdom) and analysed using FACSDiva software.
(In general: A flow cytometer gives signals particle by particle.)

Assay [4] has as its system EPCs. Put plainly: CFU-EPC bone marrow frequency. Format: in vivo, mice. To be noted: treated over 4 days, compared to controls, FIG. 22b.

Description for neutrophils: 24 hours later these mice underwent perfusion of the right hind limb. CXCR4 antagonist (AMD3100 0.1 mM, closed bars) or vehicle (PBS, open bars) were then infused directly into the femoral artery for 10 minutes. The hind limb was then perfused for a further 50 minutes to allow collection of a, neutrophils via the femoral vein. […] The hind limb was again perfused for a further 50 minutes to allow b, collection of neutrophils. […] Data: mean±s.e.m. *: P<0.05, ***: P<0.001 between selected groups.
Female BALB/c mice were purchased from Harlan (Oxford, United Kingdom). […] 24 hours after the last injection, mice were administered a CXCR4 antagonist (AMD3100, 5 mg/kg i.p), KC (30 μg/kg i.v.) or vehicle and blood was collected via cardiac puncture 60 minutes later for enumeration of circulating leukocyte, HPC, EPC, and stromal progenitor cell levels.
as §1

VEGF: the “percentage of CD34+ VEGFR2+ EPCs in S/G2/M phase of the cell-cycle” value in the assay with CD34^+ VEGFR2^+ EPCs is given as “did not alter the percentage of CD34^+ VEGFR2^+ EPCs in the S/G2/M phase”. In addition, the “EPC mobilization from the bone marrow” value with EPCs [1] (agent alone (CXCR4 antagonist 0.1 mM infused 10 min; G-CSF or VEGF pre-treatment 4 days)) was “significant EPC mobilization”; in the assay on EPCs [1] (growth factor pre-treatment 4 days, then CXCR4 antagonist infused), “an additive effect was observed for EPC mobilization”. In addition, the “EPC mobilization, acute administration” value in the assay on EPCs [1] (growth factor (50 nM) infused into femoral artery for 10 minutes, alone, FIG. 31b) was “mobilized both HPCs and EPCs”. Also, in the assay with neutrophils, the “KC-induced mobilization of neutrophils in vivo” value is given as “completely abrogated”. Further, in assay [2], the “total number of cells in the femurs” value is listed as 1.07±0.11×10^7 cells/femur. Also, the “circulating numbers of EPCs” value in the assay with EPCs [3] (agent alone (AMD3100 5 mg/kg i.p., blood at 60 min; G-CSF or VEGF once daily for 4 days)) is on record as “increase in EPC numbers”; in the assay with EPCs [3] (growth factor pre-treatment over 4 days, then CXCR4 antagonist AMD3100 5 mg/kg i.p.), “more than additive increase in EPC numbers”. Besides, in the assay on HPCs, the “circulating numbers of HPCs” value is given as “did not increase circulating numbers of HPCs”. Further, in the assay with CXCR4 (CD34+ VEGFR2+ bone marrow cells, FIG. 23c), the “CXCR4 expression on EPCs” value is on record as “did not alter the expression of CXCR4 on either HPCs or EPCs”. Besides, the “CXCR4 expression on HPCs” value in the assay with CXCR4 (Lin- Sca-1+ bone marrow cells, FIG. 23b) was “did not alter the expression of CXCR4 on either HPCs or EPCs”. The “frequency/number of EPCs in the bone marrow” value in the assay on EPCs [4] is on record as “no difference was observed”.
